Values quoted from earlier work as cited in patent US9597306B1, “Fumarate compounds, pharmaceutical compositions thereof, and methods of use” (priority 2015, dated 2017).

In the case of `COC(=O)/C=C/C(=O)OC` [DMF, dimethylfumarate], the aqueous solubility is listed as “poor”.
